Measured values: US11903955B2, “Methods of treating heart failure with reduced ejection fraction” (ASTRAZENECA AB, priority 2019, dated 2024)
“And” between values parts separate entries of the source, which are not always exact repeats. Equal values may be shown once. Read-outs that look alike come from different tables or passages of the source. Marks after values point to notes of the source that are not given here.

Legend:
[1] = system: patients with HFrEF; settings: for Mild hyperkalemia (>5.5 mmol/L), HR (95% CI) / Moderate/Severe hyperkalemia (>6.0 mmol/L), HR (95% CI): dapagliflozin vs placebo; for Mild hyperkalemia (>5.5 mmol/L), No. events/patients: excluding baseline K+ > 5.5; for Moderate/Severe hyperkalemia (>6.0 mmol/L), No. events/patients: excluding baseline K+ > 6.0
From the text: Hyperkalemia often limits the use of mineralocorticoid receptor antagonists (MRAs) in patients with heart failure and reduced ejection fraction (HFrEF), denying these patients a life-saving therapy.

[2] = system: patients with HFrEF without diabetes; settings: individuals without diabetes at baseline
From the text: FIG. 17 describes incidence of new onset T2D (HbA1c ≥6.5%) measured at 2 consecutive study visits post-randomization or investigator-reported new T2D vs placebo patients with previously undiagnosed diabetes, i.e., HbA1c ≥6.5%
Patients also had measurement of a glycated hemoglobin (HbA1c) level in a central laboratory at visit 1 and again at visit 2 (the randomization visit), which occurred 14 (±7) days later. For this prespecified subgroup analysis, patients were categorized as having diabetes if there was a history of diabetes or the glycated hemoglobin was at least 6.5% (≥48 mmol/mol) at both visits 1 and 2. Patients with a glycated hemoglobin level <5.7% ([…]) at both visits 1 and 2 were considered to have a normal glycated hemoglobin. For the purposes of this study, patients with a glycated hemoglobin ≥5.7% and <6.5% were considered to have pre-diabetes. Id.

[3] = system: patients with chronic heart failure with reduced ejection fraction (LVEF ≤40%); settings: for NT-proBNP, between-treatment difference: baseline to 8 months; for decrease in NT-proBNP: between baseline and 8 months
Method: Data from all randomly assigned patients were included in the analyses of the primary and secondary outcomes, according to the intention-to-treat principle. Baseline characteristics were summarized as means and standard deviations, medians and inter-quartile ranges, or percentages. Longitudinal measures, such as glycated hemoglobin level (HbA1c) and body weight, were analyzed using mixed model for repeated measurements, and the least-squares mean differences between treatment groups were estimated, together with 95% confidence intervals. Time-to-event data were evaluated with the use of Kaplan-Meier estimates and Cox proportional hazards models, stratified by diabetes status, with history of heart failure hospitalization and treatment as fixed-effect factors (for the renal endpoint, baseline eGFR was included instead of history of heart failure hospitalization); hazard ratios, 95% confidence intervals, and two-sided P values were calculated with the use of the Cox models.

[4] = system: patients with chronic heart failure with reduced ejection fraction (LVEF ≤40%); settings: for Change in KCCQ total symptom score at 8 mo., Win ratio (95% CI): >1 indicates superiority; for KCCQ-TSS increase, points more with dapagliflozin compared to placebo: baseline to 8 months
Method: KCCQ total symptom score was analyzed as a composite rank-based endpoint, incorporating patient vital status at 8 months along with change in score from baseline to 8 months in surviving patients, using the rank analysis of covariance method, with a corresponding win ratio used to estimate the magnitude of treatment effect.^17 The consistency of the treatment effect among 14 prespecified subgroups were assessed.
The KCCQ was completed electronically by patients, without assistance by site study staff (as validated), and evaluated at randomization, 4-months, and 8-months. The KCCQ is a 23-item, self-administered disease-specific instrument that quantifies symptoms (frequency, severity and recent change), physical function, quality of life, and social function over the prior 2 weeks. In the KCCQ, the total symptom score (TSS) quantifies the symptom frequency and severity, KCCQ clinical summary score (KCCQ-CSS) includes the physical function and symptoms domains, and KCCQ overall summary score (OSS) is derived from the following domains (total symptom score, physical function, quality of life and social function). […] Scores are transformed to a range of 0-100, in which higher scores reflect better health status.
In this study, patients were divided into three subgroups, based on the tertiles of baseline KCCQ-TSS (which was the KCCQ domain prespecified as the secondary endpoint): (i) ≤65.6, (ii) 65.7-87.5, (iii) >87.5 points.
The differences between treatment groups in mean KCCQ-TSS, CSS, and OSS at 4 months and 8 months in surviving patients were analyzed, using a mixed model for repeated measurements and estimated the least-squares mean differences between treatment groups adjusted for baseline values. Responder analyses were conducted examining proportions of patients with a deterioration, and clinically important improvements in KCCQ at 8 months. Established, clinically meaningful thresholds for KCCQ (≥5 point (at least small), ≥10 point (moderate), and ≥15 point (large) change) were used for all responder analyses across the KCCQ domains.
Odds ratios to estimate differences between treatment groups, and their corresponding 95% confidence intervals and 2-sided p-values were estimated from logistic regression models (which included treatment group, stratification variable (T2D at randomization) and baseline KCCQ values); the models used imputed data accounting for missing KCCQ values and estimates were combined using Rubin's rules.

[5] = baseline to 8 month, dapagliflozin vs placebo
[6] = dapagliflozin vs placebo, at 8 months
[7] = individuals with diabetes, dapagliflozin vs placebo
[8] = individuals without diabetes, dapagliflozin vs placebo

Compound: CCOc1ccc(Cc2cc([C@@H]3O[C@H](CO)[C@@H](O)[C@H](O)[C@H]3O)ccc2Cl)cc1 [Dapagliflozin, dapagliflozin]
- Mild hyperkalemia (>5.5 mmol/L), rate per 100 py ([1]; All patients): 8.1 per 100 py
- Moderate/Severe hyperkalemia (>6.0 mmol/L), rate per 100 py ([1]; All patients): 1.0 per 100 py
- Mild hyperkalemia (>5.5 mmol/L), HR (95% CI) ([1]; All patients): 0.93 (0.78-1.11)
- Moderate/Severe hyperkalemia (>6.0 mmol/L), HR (95% CI) ([1]; All patients): 0.64 (0.42-0.99)
- Mild hyperkalemia (>5.5 mmol/L), No. events/patients ([1]; All patients): 243/2292
- Moderate/Severe hyperkalemia (>6.0 mmol/L), No. events/patients ([1]; All patients): 34/2358
- Mild hyperkalemia (>5.5 mmol/L), rate per 100 py ([1]; MRA treated at baseline): 8.6 per 100 py
- Moderate/Severe hyperkalemia (>6.0 mmol/L), rate per 100 py ([1]; MRA treated at baseline): 0.9 per 100 py
- Mild hyperkalemia (>5.5 mmol/L), HR (95% CI) ([1]; MRA treated at baseline): 0.86 (0.70-1.05)
- Moderate/Severe hyperkalemia (>6.0 mmol/L), HR (95% CI) ([1]; MRA treated at baseline): 0.50 (0.29-0.85)
- Moderate/Severe hyperkalemia (>6.0 mmol/L), HR (95% CI) ([1]; MRA treated at baseline, listed as dapagliflozin): 0.50 (0.29, 0.85)
- Mild hyperkalemia (>5.5 mmol/L), No. events/patients ([1]; MRA treated at baseline): 180/1632
- Moderate/Severe hyperkalemia (>6.0 mmol/L), No. events/patients ([1]; MRA treated at baseline): 21/1683
- Mild hyperkalemia (>5.5 mmol/L), rate per 100 py ([1]; No MRA at baseline): 7.1 per 100 py
- Moderate/Severe hyperkalemia (>6.0 mmol/L), rate per 100 py ([1]; No MRA at baseline): 1.4 per 100 py
- Mild hyperkalemia (>5.5 mmol/L), HR (95% CI) ([1]; No MRA at baseline): 1.20 (0.84-1.72)
- Moderate/Severe hyperkalemia (>6.0 mmol/L), HR (95% CI) ([1]; No MRA at baseline): 1.17 (0.52-2.62)
- Mild hyperkalemia (>5.5 mmol/L), No. events/patients ([1]; No MRA at baseline): 63/660
- Moderate/Severe hyperkalemia (>6.0 mmol/L), No. events/patients ([1]; No MRA at baseline): 13/675
- Mild hyperkalemia, patients (%) ([1]; patients treated with an MRA): 180 (11%) patients (%)
- moderate/severe hyperkalemia, patients (%) ([1]; patients treated with an MRA): 21 (1.2%) patients (%)
- new-onset diabetes, HR ([2]; dapagliflozin vs placebo (Cox)): 0.68
- reduction of new-onset diabetes ([2]; vs placebo): 32%
- Change in systolic BP ([3]; baseline to 8 month (Visit 6)): −1.92 ± 14.92 mmHg
- Change in weight ([3]; baseline to 8 month (Visit 6)): -0.88 ± 3.86 kg
- Change in HbA1c ([3]; baseline to 8 month (Visit 6), only patients with diabetes at baseline): −0.21 ± 1.14%
- Systolic BP, between group difference (95% CI) [3, 5]: −1.41 (−2.31 to −0.52), p = 0.002 mmHg
- Weight, between group difference (95% CI) [3, 5]: −0.98 (−1.22 to −0.74), p < 0.001 kg
- HbA1c, between group difference (95% CI) ([3]; baseline to 8 month, dapagliflozin vs placebo, only patients with diabetes at baseline): −0.25 (−0.36 to −0.14), p < 0.001%
- Change in potassium ([3]; in vivo): 0.07 ± 0.53
- Potassium, between group difference (95% CI) ([3]; in vivo): −0.02 (−0.05 to 0.01), p = 0.298
- NT-proBNP, between-treatment difference ([3]; participants with diabetes, dapagliflozin vs placebo): −333 (−562 to −104) pg/ml
- decrease in NT-proBNP ([3]; participants with diabetes): 257 ± 2502 pg/mL
- NT-proBNP, between-treatment difference ([3]; patients without diabetes, dapagliflozin vs placebo): −278 (−485 to −71) pg/ml
- decrease in NT-proBNP ([3]; patients without diabetes): 144 ± 2286 pg/mL
- Change in KCCQ total symptom score at 8 mo. ([4]; No T2DM (N = 1298)): 5.4 ± 17.7
- Change in KCCQ total symptom score at 8 mo. ([4]; T2DM (N = 1075)): 7.0 ± 19.7
- KCCQ total symptom score, mean difference dapagliflozin vs placebo ([4]; all patients, at 8 months): 2.8 points
- patients with deterioration (≥5 point decline) in KCCQ-TSS ([4]; all patients, at 8 months): 25% and 25.3%
- patients with five or greater point (at least small) improvement in KCCQ-TSS ([4]; all patients, at 8 months): 58% and 58.3%
- Change in KCCQ total symptom score at 8 mo. ([4]; all patients, baseline to month 8, mean ± SD): 6.1 ± 18.6 points
- Change in KCCQ total symptom score at 8 mo. ([4]; all patients, baseline to month 8, mean ± SD, listed as dapagliflozin): 6.1±18.6 points
- mean KCCQ-CSS, points higher than placebo ([4]; at 4 months): 1.8 points
- mean KCCQ-OSS, points higher than placebo ([4]; at 4 months): 1.7 points
- mean KCCQ-TSS, points higher than placebo ([4]; at 4 months): 1.9 points
- mean KCCQ-CSS, points higher than placebo ([4]; at 8 months): 2.5 points
- mean KCCQ-OSS, points higher than placebo ([4]; at 8 months): 2.3 points
- number needed to treat (NNT) for at least small (≥5 point) improvement in KCCQ-TSS ([4]; at 8 months): 14 (10-23)
- number needed to treat (NNT) for large (≥15 point) improvement in KCCQ-TSS ([4]; at 8 months): 18 (12-35)
- number needed to treat (NNT) for moderate (≥10 point) improvement in KCCQ-TSS ([4]; at 8 months): 15 (11-25)
- patients with large (≥15 point) improvement in KCCQ-TSS ([4]; at 8 months): 54.0%
- patients with moderate (≥10 point) improvement in KCCQ-TSS ([4]; at 8 months): 54.5%
- Change in KCCQ total symptom score at 8 mo., win-ratio (95% CI) ([4]; dapagliflozin vs placebo, No T2DM): 1.15 (1.05, 1.26)
- Change in KCCQ total symptom score at 8 mo., win-ratio (95% CI) ([4]; dapagliflozin vs placebo, T2DM): 1.22 (1.11, 1.35)
- Change in KCCQ total symptom score at 8 mo., Win ratio (95% CI) ([4]; dapagliflozin vs placebo, all patients): 1.18 (1.11-1.26)†
- Change in KCCQ total symptom score at 8 mo., Win ratio (95% CI) ([4]; dapagliflozin vs placebo, all patients, listed as dapagliflozin): 1.18
- odds ratio (95% CI) for large (≥15 point) improvement in KCCQ-TSS [4, 6]: 1.14 (1.07-1.22)
- odds ratio (95% CI) for moderate (≥10 point) improvement in KCCQ-TSS [4, 6]: 1.15 (1.08-1.22)
- odds ratio for deterioration (≥5 point decline) in KCCQ-TSS [4, 6]: 0.84
- odds ratio for ≥5 point improvement in KCCQ-TSS [4, 6]: 1.15
- patients with deterioration in KCCQ-TSS ([4]; individuals with diabetes): 24.5%
- patients with ≥5-point improvement in KCCQ-TSS ([4]; individuals with diabetes): 58.9%
- odds ratio for deterioration in KCCQ-TSS [4, 7]: 0.78 (0.71, 0.87)
- odds ratio for ≥5-point improvement in KCCQ-TSS [4, 7]: 1.20 (1.09, 1.31)
- patients with an increase of at least 5 points in KCCQ-TSS ([4]; individuals without diabetes): 57.7%
- patients with significant deterioration in KCCQ-TSS ([4]; individuals without diabetes): 26.0%
- odds ratio for increase of at least 5 points in KCCQ-TSS [4, 8]: 1.12 (95% CI 1.03, 1.22)
- odds ratio for significant deterioration in KCCQ-TSS [4, 8]: 0.88 (0.81, 0.97)
- KCCQ-TSS increase, points more with dapagliflozin compared to placebo ([4]; patients with diabetes): 3.5 (95% CI 1.6-5.4) points
- KCCQ-TSS increase, points more with dapagliflozin compared to placebo ([4]; patients without diabetes): 2.2 (95% CI 0.7-3.7) points
